This is an account of results in ChEMBL document CHEMBL5465560, “Selectivity Literature for EUbOPEN Chemogenomic Library” (2024).

For test [1], the target named is Serine/threonine-protein kinase N2 (Homo sapiens, UniProt Q16513). The following applies: at 10 µM.
The target of test [2] is T1, Serine/threonine-protein kinase Nek3 (Homo sapiens) (UniProt P51956).
T1 sequence (whole entry): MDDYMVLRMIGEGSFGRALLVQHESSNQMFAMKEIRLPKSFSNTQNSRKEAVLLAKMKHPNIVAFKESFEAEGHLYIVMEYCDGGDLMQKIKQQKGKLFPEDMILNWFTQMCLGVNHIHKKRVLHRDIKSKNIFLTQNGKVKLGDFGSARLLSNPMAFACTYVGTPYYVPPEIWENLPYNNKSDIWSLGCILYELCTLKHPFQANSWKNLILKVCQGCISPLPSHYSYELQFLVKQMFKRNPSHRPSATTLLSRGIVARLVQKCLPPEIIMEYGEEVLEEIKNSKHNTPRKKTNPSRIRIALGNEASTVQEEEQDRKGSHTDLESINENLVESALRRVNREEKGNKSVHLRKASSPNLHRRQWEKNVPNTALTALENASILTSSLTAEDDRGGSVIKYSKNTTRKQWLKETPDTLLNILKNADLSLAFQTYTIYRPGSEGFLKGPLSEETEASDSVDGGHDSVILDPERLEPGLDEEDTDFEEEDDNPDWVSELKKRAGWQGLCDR
As to the kind of experiment: Selectivity interaction (KinomeScan (DiscoverX)) EUB0000695a NEK3. The following applies: at 100 nM.

For test [3], the target named is T2, Mitogen-activated protein kinase kinase kinase 19 (Homo sapiens) (UniProt Q56UN5).
T2 sequence (whole entry): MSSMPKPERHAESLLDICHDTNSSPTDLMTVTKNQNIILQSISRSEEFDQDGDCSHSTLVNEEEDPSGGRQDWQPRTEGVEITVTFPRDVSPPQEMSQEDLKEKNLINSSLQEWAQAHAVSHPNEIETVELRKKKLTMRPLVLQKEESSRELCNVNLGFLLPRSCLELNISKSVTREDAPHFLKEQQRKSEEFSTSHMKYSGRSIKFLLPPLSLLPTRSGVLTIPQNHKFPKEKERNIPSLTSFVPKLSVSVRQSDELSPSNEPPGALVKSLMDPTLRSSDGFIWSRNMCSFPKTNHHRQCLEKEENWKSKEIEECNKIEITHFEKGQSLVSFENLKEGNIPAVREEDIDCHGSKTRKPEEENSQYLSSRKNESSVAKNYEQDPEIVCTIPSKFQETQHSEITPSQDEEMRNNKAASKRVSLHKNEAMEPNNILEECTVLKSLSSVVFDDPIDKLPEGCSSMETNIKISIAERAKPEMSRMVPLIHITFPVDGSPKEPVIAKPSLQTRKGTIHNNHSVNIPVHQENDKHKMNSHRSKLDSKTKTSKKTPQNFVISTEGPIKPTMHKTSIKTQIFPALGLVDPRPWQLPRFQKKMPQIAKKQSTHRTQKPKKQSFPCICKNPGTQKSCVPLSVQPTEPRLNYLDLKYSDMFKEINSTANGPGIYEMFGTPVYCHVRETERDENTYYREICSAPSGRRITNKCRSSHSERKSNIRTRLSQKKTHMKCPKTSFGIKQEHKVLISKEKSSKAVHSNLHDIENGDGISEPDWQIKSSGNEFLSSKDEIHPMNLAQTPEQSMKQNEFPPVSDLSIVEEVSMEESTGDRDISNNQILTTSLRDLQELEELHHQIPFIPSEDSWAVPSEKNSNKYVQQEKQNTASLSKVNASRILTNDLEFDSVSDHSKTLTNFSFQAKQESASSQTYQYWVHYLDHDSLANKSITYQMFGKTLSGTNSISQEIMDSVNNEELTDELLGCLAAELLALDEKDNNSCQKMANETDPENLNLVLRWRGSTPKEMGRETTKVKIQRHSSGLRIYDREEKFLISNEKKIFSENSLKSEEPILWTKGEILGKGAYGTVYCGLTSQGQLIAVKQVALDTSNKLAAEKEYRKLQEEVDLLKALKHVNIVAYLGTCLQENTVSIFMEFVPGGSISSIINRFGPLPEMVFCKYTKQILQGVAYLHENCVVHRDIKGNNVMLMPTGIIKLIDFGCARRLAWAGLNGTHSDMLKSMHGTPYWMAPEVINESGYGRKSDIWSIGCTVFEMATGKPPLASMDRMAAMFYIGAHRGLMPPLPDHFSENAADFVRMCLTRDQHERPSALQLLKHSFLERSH
As to the kind of experiment: Selectivity interaction (KinomeScan (DiscoverX)) EUB0001550a MAP3K19. The following applies: at 1 µM.

In test [4] the target is Diacylglycerol kinase beta (Homo sapiens) (UniProt Q9Y6T7). As to the kind of experiment: Selectivity interaction (Kinase panel (literature)) EUB0001199aCl DGKB. The following applies: at 1 µM.
For test [5], the target named is T3, Rhodopsin kinase GRK1 (Homo sapiens) (UniProt Q15835).
T3 sequence (whole entry): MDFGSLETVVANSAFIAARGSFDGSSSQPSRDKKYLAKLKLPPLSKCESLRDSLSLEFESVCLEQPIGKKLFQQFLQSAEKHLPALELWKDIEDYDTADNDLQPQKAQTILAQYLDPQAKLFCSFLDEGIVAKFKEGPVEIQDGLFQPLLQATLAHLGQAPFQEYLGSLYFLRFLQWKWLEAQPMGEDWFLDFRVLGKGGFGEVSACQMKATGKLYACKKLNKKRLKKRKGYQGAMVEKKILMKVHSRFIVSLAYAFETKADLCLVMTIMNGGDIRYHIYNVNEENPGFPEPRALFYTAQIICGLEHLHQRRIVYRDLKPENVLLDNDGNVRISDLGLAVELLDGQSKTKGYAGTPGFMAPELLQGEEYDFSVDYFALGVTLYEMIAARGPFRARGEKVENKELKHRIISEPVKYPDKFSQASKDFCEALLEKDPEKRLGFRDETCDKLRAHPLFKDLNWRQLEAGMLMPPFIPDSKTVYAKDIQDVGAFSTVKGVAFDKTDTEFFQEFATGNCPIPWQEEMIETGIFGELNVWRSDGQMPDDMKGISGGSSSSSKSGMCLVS
Nature of the test: Selectivity interaction (Ambit KINOMEscan and KiNATiv profiling in Jurkat cells) EUB0000090b GRK1. The format is cell-based. The following applies: at 1 µM.

For test [6], the target named is Ephrin type-A receptor 2 (Homo sapiens) (UniProt P29317). Nature of the test: Selectivity interaction (KinomeScan (DiscoverX)) EUB0000655a EPHA2. The following applies: at 10 µM.
For test [7], the target named is Mitotic checkpoint serine/threonine-protein kinase BUB1 (Homo sapiens, UniProt O43683). Nature of the test: Selectivity interaction (KinomeScan (DiscoverX)) EUB0001079a BUB1. The following applies: at 1 µM.
Sequence of Mitotic checkpoint serine/threonine-protein kinase BUB1 (O43683 whole entry, looked up): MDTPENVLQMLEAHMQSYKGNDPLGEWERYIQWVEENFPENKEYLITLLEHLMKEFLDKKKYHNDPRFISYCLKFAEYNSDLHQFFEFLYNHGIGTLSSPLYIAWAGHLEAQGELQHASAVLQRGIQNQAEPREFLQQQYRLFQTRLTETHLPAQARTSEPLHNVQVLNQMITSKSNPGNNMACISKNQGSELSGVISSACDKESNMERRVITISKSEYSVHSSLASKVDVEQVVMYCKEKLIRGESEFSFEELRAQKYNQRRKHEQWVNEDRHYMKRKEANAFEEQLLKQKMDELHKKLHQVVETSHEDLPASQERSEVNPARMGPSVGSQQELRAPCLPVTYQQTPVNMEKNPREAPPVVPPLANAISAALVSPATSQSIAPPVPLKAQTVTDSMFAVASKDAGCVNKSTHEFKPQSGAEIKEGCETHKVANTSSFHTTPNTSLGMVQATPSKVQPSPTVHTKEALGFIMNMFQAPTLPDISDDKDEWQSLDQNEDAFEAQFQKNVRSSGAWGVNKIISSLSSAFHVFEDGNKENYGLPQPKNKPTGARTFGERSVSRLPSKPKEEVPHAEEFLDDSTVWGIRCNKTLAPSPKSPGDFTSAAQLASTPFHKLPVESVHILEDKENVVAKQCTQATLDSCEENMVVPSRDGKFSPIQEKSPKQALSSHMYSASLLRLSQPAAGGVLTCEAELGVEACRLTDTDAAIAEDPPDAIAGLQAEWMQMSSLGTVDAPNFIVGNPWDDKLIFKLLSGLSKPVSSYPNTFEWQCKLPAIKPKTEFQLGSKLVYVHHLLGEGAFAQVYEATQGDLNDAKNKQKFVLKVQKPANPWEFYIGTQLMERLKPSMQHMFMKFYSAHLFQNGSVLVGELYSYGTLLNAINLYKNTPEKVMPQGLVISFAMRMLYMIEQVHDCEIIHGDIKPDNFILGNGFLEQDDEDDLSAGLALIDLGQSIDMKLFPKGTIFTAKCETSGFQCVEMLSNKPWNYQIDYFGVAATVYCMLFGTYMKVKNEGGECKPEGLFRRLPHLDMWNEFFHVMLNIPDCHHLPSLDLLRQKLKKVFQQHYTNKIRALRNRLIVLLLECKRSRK

Sequence of Serine/threonine-protein kinase N2 (Q16513 whole entry, looked up): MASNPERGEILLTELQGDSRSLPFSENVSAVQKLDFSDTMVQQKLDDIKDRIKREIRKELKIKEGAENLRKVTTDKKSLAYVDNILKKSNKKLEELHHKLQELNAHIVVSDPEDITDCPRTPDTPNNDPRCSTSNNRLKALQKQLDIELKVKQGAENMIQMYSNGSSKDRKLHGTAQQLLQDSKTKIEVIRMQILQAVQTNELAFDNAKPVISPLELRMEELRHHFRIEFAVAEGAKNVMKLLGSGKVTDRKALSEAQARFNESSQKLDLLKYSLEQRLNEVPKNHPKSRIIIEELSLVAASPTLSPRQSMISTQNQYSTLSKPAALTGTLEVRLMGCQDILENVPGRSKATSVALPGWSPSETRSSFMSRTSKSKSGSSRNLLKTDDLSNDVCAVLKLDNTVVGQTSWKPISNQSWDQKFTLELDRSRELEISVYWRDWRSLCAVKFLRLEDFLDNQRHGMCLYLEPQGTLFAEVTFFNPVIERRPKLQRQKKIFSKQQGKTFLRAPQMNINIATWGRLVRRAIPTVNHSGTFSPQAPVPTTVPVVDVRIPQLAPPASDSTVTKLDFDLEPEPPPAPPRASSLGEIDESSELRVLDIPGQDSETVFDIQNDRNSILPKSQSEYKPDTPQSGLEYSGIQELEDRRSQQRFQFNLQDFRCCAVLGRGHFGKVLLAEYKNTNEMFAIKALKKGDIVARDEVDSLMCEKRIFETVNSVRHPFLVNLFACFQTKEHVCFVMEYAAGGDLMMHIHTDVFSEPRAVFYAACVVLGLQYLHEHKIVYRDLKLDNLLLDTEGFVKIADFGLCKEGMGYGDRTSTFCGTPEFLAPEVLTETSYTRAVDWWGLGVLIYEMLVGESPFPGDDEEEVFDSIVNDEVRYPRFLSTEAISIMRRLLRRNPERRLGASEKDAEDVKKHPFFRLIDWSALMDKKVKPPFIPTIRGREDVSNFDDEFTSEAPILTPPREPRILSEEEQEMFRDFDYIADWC
Sequence of Ephrin type-A receptor 2 (Homo sapiens) (P29317 whole entry): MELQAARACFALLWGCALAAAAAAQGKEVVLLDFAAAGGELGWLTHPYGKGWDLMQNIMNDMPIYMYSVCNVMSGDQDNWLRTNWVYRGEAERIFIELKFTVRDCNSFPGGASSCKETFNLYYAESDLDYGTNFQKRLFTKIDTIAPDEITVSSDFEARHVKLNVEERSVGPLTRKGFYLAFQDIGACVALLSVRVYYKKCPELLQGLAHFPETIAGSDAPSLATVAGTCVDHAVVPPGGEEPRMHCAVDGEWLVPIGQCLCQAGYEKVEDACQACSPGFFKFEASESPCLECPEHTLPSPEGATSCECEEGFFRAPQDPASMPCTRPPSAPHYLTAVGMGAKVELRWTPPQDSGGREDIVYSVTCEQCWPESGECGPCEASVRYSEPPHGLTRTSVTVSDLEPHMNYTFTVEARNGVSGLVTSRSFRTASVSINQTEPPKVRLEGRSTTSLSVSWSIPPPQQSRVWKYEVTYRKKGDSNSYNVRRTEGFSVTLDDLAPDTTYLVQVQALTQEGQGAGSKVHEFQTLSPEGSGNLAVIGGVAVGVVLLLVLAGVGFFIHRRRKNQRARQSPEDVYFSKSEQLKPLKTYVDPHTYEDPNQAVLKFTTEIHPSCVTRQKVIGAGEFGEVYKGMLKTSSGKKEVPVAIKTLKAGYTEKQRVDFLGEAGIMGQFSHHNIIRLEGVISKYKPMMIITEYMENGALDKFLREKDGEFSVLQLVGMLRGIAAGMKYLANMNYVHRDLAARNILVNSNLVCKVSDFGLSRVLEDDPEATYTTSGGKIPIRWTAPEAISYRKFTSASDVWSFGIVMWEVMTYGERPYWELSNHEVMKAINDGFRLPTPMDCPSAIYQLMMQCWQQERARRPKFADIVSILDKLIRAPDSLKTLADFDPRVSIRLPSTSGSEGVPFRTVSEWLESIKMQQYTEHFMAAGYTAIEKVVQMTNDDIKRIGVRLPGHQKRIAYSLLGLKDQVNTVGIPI

With `COCC(=O)NC/C=C/c1ccc2ncnc(Nc3ccc(Oc4ccc(C)nc4)c(C)c3)c2c1` [CP-724714], the % of control in test [1] was 99%.

In test [2], `Cc1cc(F)c(C(=O)Nc2cccc(-c3nncn3C(C)C)n2)cc1-n1cnc(C2CC2)c1` had a % of control of 84%.

With `CN(C)CC#Cc1ccc2[nH]c3c(c2c1)-c1nc(N)ncc1CCC3`, the % of control in test [3] stood at 9.9%.

On to `CN1Cc2nccc(-c3cn(C)nc3-c3ccc(F)cc3)c2C1=O`, for which the % of inhibition in test [4] is -9%.

As for `CN(C)C/C=C/C(=O)Nc1ccc(C(=O)N2CCCC(Nc3ncc(Cl)c(-c4c[nH]c5ccccc45)n3)C2)cc1` (configuration not stated), in test [5], the % of control amounted to 57%.

Regarding `CN(C)CCOc1ccc(-c2nc(-c3ccncc3)c(-c3ccc4c(c3)CC/C4=N\O)[nH]2)cc1`, the % of control in test [6] is 83%.

For the compound `Nc1cnc(N2CCc3cc(S(=O)(=O)Nc4c(F)cc(Cl)cc4F)cc(N4CCCC4=O)c32)nc1` [TP-020n], in test [7], the % of control was 100%.
